Assay results taken from PubChem BioAssay (NCI).
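Where inhibition never reached the appropriate level, the endpoint shown equals the highest concentration tested. Otherwise, values were interpolated linearly from a five-concentration, 48-hour dose response in 96-well plates. GI50: concentration for 50% inhibition of growth. TGI denotes the concentration required for complete inhibition of growth.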

Experiments:
Assay in all cases: NCI-60 cell line screen, 48 h
SK-OV-3 ovarian = test system: SK-OV-3 ovarian
HT29 colon = test system: HT29 colon
MOLT-4 leukemia = test system: MOLT-4 leukemia
SK-MEL-2 melanoma = test system: SK-MEL-2 melanoma
SF-268 CNS = test system: SF-268 CNS
UO-31 renal = test system: UO-31 renal
RXF 393 renal = test system: RXF 393 renal
OVCAR-5 ovarian = test system: OVCAR-5 ovarian
HCT-116 colon = test system: HCT-116 colon
A549 NSCLC = test system: A549 NSCLC
SW-620 colon = test system: SW-620 colon
HCC-2998 colon = test system: HCC-2998 colon
IGROV1 ovarian = test system: IGROV1 ovarian
NCI-H460 lung = test system: NCI-H460 lung
SN12C renal = test system: SN12C renal
SNB-19 CNS = test system: SNB-19 CNS
COLO 205 colon = test system: COLO 205 colon
NCI-H522 lung = test system: NCI-H522 lung
TK-10 renal = test system: TK-10 renal
NCI-H23 lung = test system: NCI-H23 lung
PC-3 prostate = test system: PC-3 prostate
MDA-MB-231 breast = test system: MDA-MB-231 breast
BT-549 breast = test system: BT-549 breast
KM12 colon = test system: KM12 colon
786-0 renal = test system: 786-0 renal
OVCAR-8 ovarian = test system: OVCAR-8 ovarian
K-562 leukemia = test system: K-562 leukemia
MDA-MB-435 = test system: MDA-MB-435
NCI-H226 lung = test system: NCI-H226 lung
HOP-62 NSCLC = test system: HOP-62 NSCLC
HS 578T breast = test system: HS 578T breast
UACC-257 melanoma = test system: UACC-257 melanoma
SK-MEL-5 melanoma = test system: SK-MEL-5 melanoma
ACHN renal = test system: ACHN renal
HCT-15 colon = test system: HCT-15 colon
NCI/ADR-RES ovarian = test system: NCI/ADR-RES ovarian
LOX IMVI melanoma = test system: LOX IMVI melanoma
OVCAR-4 ovarian = test system: OVCAR-4 ovarian
UACC-62 melanoma = test system: UACC-62 melanoma
MALME-3M melanoma = test system: MALME-3M melanoma
OVCAR-3 ovarian = test system: OVCAR-3 ovarian
EKVX NSCLC = test system: EKVX NSCLC
DU-145 prostate = test system: DU-145 prostate
SNB-75 CNS = test system: SNB-75 CNS
CAKI-1 renal = test system: CAKI-1 renal
SF-295 CNS = test system: SF-295 CNS
U251 CNS = test system: U251 CNS
SK-MEL-28 melanoma = test system: SK-MEL-28 melanoma
M14 melanoma = test system: M14 melanoma
HOP-92 NSCLC = test system: HOP-92 NSCLC
MCF7 breast = test system: MCF7 breast

O=C1C=CC(=O)c2cc3cc(CO)ccc3cc21
GI50 (SK-OV-3 ovarian): 31.9 µM
TGI (SK-OV-3 ovarian): > 100 µM
GI50 (HT29 colon): 10.9 µM
TGI (HT29 colon): > 100 µM
GI50 (MOLT-4 leukemia): 0.621 µM
TGI (MOLT-4 leukemia): > 100 µM
GI50 (SK-MEL-2 melanoma): 16.8 µM
TGI (SK-MEL-2 melanoma): 32.8 µM
GI50 (SF-268 CNS): 16.7 µM
TGI (SF-268 CNS): 34.7 µM
GI50 (UO-31 renal): 2.35 µM
TGI (UO-31 renal): 4.58 µM
GI50 (RXF 393 renal): 14.6 µM
TGI (RXF 393 renal): 29.9 µM
GI50 (OVCAR-5 ovarian): 20.5 µM
TGI (OVCAR-5 ovarian): 55.6 µM
GI50 (HCT-116 colon): 1.82 µM
TGI (HCT-116 colon): 3.22 µM
GI50 (A549 NSCLC): 19.3 µM
TGI (A549 NSCLC): 45.1 µM
GI50 (SW-620 colon): 1.51 µM
TGI (SW-620 colon): 2.91 µM
GI50 (HCC-2998 colon): 4.42 µM
TGI (HCC-2998 colon): 14.1 µM
GI50 (IGROV1 ovarian): 8.79 µM
TGI (IGROV1 ovarian): 26 µM
GI50 (NCI-H460 lung): 19.1 µM
TGI (NCI-H460 lung): 39.8 µM
GI50 (SN12C renal): 5.76 µM
TGI (SN12C renal): 15.8 µM
GI50 (SNB-19 CNS): 20 µM
TGI (SNB-19 CNS): 66.8 µM
GI50 (COLO 205 colon): 11.1 µM
TGI (COLO 205 colon): 49.5 µM
GI50 (NCI-H522 lung): 9.48 µM
TGI (NCI-H522 lung): 26.4 µM
GI50 (TK-10 renal): 15.5 µM
TGI (TK-10 renal): 30 µM
GI50 (NCI-H23 lung): 15.8 µM
TGI (NCI-H23 lung): 29.2 µM
GI50 (PC-3 prostate): 16.2 µM
TGI (PC-3 prostate): 34.1 µM
GI50 (MDA-MB-231 breast): 11.5 µM
TGI (MDA-MB-231 breast): 24.9 µM
GI50 (BT-549 breast): 12.9 µM
TGI (BT-549 breast): 25.7 µM
GI50 (KM12 colon): 19.3 µM
TGI (KM12 colon): 51.3 µM
GI50 (786-0 renal): 1.74 µM
TGI (786-0 renal): 3.31 µM
GI50 (OVCAR-8 ovarian): 2.94 µM
TGI (OVCAR-8 ovarian): 11.2 µM
GI50 (K-562 leukemia): 1.06 µM
TGI (K-562 leukemia): 3.04 µM
GI50 (MDA-MB-435): 10.4 µM
TGI (MDA-MB-435): 23.6 µM
GI50 (NCI-H226 lung): 16.7 µM
TGI (NCI-H226 lung): 31.5 µM
GI50 (HOP-62 NSCLC): 17.3 µM
TGI (HOP-62 NSCLC): 31.1 µM
GI50 (HS 578T breast): 21.3 µM
TGI (HS 578T breast): 55.4 µM
GI50 (UACC-257 melanoma): 12 µM
TGI (UACC-257 melanoma): 27.2 µM
GI50 (SK-MEL-5 melanoma): 10.9 µM
TGI (SK-MEL-5 melanoma): 22.9 µM
GI50 (ACHN renal): 3.22 µM
TGI (ACHN renal): 10.8 µM
GI50 (HCT-15 colon): 15.1 µM
TGI (HCT-15 colon): 28.4 µM
GI50 (NCI/ADR-RES ovarian): 19.5 µM
TGI (NCI/ADR-RES ovarian): 36.2 µM
GI50 (LOX IMVI melanoma): 1.94 µM
TGI (LOX IMVI melanoma): 4.1 µM
GI50 (OVCAR-4 ovarian): 5.55 µM
TGI (OVCAR-4 ovarian): 24.7 µM
GI50 (UACC-62 melanoma): 17.9 µM
TGI (UACC-62 melanoma): 31.8 µM
GI50 (MALME-3M melanoma): 11.5 µM
TGI (MALME-3M melanoma): 26.1 µM
GI50 (OVCAR-3 ovarian): 1.71 µM
TGI (OVCAR-3 ovarian): 4.2 µM
GI50 (EKVX NSCLC): 14.5 µM
TGI (EKVX NSCLC): 28.1 µM
GI50 (DU-145 prostate): 1.1 µM
TGI (DU-145 prostate): 2.54 µM
GI50 (SNB-75 CNS): 19.9 µM
TGI (SNB-75 CNS): 48.6 µM
GI50 (CAKI-1 renal): 3.48 µM
TGI (CAKI-1 renal): 10.3 µM
GI50 (SF-295 CNS): 20 µM
TGI (SF-295 CNS): 37.8 µM
GI50 (U251 CNS): 15.4 µM
TGI (U251 CNS): 28.7 µM
GI50 (SK-MEL-28 melanoma): 29.5 µM
TGI (SK-MEL-28 melanoma): > 100 µM
GI50 (M14 melanoma): 14.4 µM
TGI (M14 melanoma): 27.5 µM
GI50 (HOP-92 NSCLC): 2.76 µM
TGI (HOP-92 NSCLC): 6.51 µM
GI50 (MCF7 breast): 14.5 µM
TGI (MCF7 breast): 33.3 µM
